Measured values taken from publication PMC7545214, “Structural basis for energy transfer in a huge diatom PSI-FCPI supercomplex” (Nature Communications, 2020).

Assays:
[1] = target: T1, PSI core of the PSI-FCPI supercomplex (Chaetoceros neogracilis, UniProt A0A6J4B0E7+A0A6J4B109); assay: cryo-EM structure, […] Å; format: binding; settings: two molecules bound to PsaA/B/R
T1 construct: gene psaA; native purification from thylakoids with DDM; PsaS modelled as polyalanine; with Photosystem I iron-sulfur center; Photosystem I reaction center subunit II; Photosystem I reaction center subunit IV; Photosystem I reaction center subunit III; Photosystem I reaction center subunit VIII; Photosystem I reaction center subunit IX; Photosystem I reaction center subunit XI; Photosystem I reaction center subunit XII; Photosystem I subunit PsaR; Photosystem I subunit PsaS
T1 sequence (A0A6J4B0E7 1-733, one chain of several): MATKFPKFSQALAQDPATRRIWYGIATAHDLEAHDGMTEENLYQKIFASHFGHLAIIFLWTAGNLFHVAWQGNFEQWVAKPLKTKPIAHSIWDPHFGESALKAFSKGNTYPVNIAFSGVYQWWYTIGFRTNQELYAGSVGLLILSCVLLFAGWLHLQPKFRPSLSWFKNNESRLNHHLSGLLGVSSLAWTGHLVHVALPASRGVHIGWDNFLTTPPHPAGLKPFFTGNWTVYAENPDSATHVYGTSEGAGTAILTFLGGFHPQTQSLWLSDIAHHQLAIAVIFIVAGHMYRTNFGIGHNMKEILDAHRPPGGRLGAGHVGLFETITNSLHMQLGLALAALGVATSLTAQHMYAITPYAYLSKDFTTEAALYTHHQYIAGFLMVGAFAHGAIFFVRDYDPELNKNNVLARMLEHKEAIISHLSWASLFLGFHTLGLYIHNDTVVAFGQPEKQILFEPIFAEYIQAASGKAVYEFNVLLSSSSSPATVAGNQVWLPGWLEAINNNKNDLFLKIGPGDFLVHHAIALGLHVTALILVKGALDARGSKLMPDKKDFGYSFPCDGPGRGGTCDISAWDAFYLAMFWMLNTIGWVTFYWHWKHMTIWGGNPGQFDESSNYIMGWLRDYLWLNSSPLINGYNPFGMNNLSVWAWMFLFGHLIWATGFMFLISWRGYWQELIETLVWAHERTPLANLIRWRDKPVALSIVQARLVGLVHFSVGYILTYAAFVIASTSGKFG

PsaR = target: T2, PsaR (Chaetoceros neogracilis, UniProt A0A6J4B118); assay: cryo-EM structure, […] Å; format: binding; settings: one molecule
T2 construct: gene psa28; native, within the PSI-FCPI supercomplex; 89 residues, two transmembrane helices; next to PsaB and FCPI-8/9/10
T2 sequence (A0A6J4B118 51-139): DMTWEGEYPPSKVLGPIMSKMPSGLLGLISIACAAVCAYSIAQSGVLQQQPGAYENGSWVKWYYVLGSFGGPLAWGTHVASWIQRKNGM

CC1=C(C#C/C(C)=C/C=C/C(C)=C/C=C/C=C(C)/C=C/C=C(C)/C=C/[C@@]23O[C@]2(C)C[C@@H](O)CC3(C)C)C(C)(C)C[C@H](O)C1 [diadinoxanthin]
cryo-EM structure, 2.38 Å ([1]; chain of each in supplement): two Ddx and two Fx were identified in the diatom PSI core

CC(=O)O[C@H]1CC(C)(C)C(=C=C/C(C)=C/C=C/C(C)=C/C=C/C=C(C)/C=C/C=C(\C)C(=O)C[C@@]23O[C@]2(C)C[C@@H](O)CC3(C)C)[C@](C)(O)C1 [fucoxanthin]
cryo-EM structure, 2.38 Å ([1]; one of them on PsaR): two Ddx and two Fx were identified in the diatom PSI core | cryo-EM structure, 2.38 Å (PsaR): binds one Chl a and one Fx
